This note sets out measurements from patent publication US9731001B2, “Three-dimensional cavities of dendritic cell immunoreceptor (DCIR), compounds binding thereto and therapeutic applications related to inhibition of human immunodeficiency virus type-1 (HIV-1)” (priority 2011, dated 2017).

The structures appear in SMILES notation.

Series [1] deals with HIV-1 (NL4-3BalEnv). Briefly: HIV replication in polarized Th17 CD4T cells (p24). The settings on record: 10 μM, 3, 7 and 10 days of incubation. It counts as cell-based. The protocol:
(§1) FIGS. 13A and 13B are a bar graphs showing impact of the DCIR-EPS inhibitor (Cpd B2) on HIV replication by activated Th17 polarized CD4T cells, according to Example 8. Polarized CD4 Th17 cells (FIG. 13A) and PHA/IL-2 activated CD4T cells (FIG. 13B) were either untreated or treated with 10 μM of DCIR-EPS inhibitor (Cpd B2) for 10 min at 37° C. Cells were then exposed to NL4-3BalEnv for 2 hrs. After three washes with PBS to remove non-adsorbed virus, cells were cultured during 10 days. Viral replication was quantified by measuring the HIV-p24 content in culture supernatants. Data represent means±SD of triplicate samples from the same patient. Asterisks denote statistically significant differences (**, P<0.01), (*, P<0.05).
(§2) It was assessed whether the DCIR inhibitor (Compound B2) could reduce viral production. Polarized Th17 CD4T cells (FIG. 13A) and PHA/IL-2 activated CD4T cells (FIG. 13B) were pretreated or not with DCIR inhibitor (Cpd B2) before being put into contact with NL4-3BalEnv. Cells were washed and incubated for 10 days and then p24 content was measured. […] Prevention of Th17 infection could be contributed to maintain an adequate intestinal homeostasis.

The test system of series [2] is HIV-1 (NL4-3BalEnv). Nature of the series: HIV replication in PHA/IL-2 activated CD4T cells (p24). In kind it is cell-based. The settings on record: 10 μM. The protocol:
as §1, §2

Series [3] has as its system Polarized CD4 Th17 cells. Briefly: Toxicity by MTT assay, polarized CD4 Th17 cells. In kind it is cell-based, human. The settings on record: Th17 CD4T cells; 10 uM; 10 days. On the procedure:
(§3) FIGS. 14A-14F are a bar graphs showing the impact of the DCIR-EPS inhibitor (Cpd B2) on viability and apoptosis of TH17 polarized CD4 T cells or PHA-L/activated CD4T cells according to Example 8. Polarized CD4 TH17 cells (left panels) or PHA-L/IL-2 activated CD4 T cells (right panels) were either untreated or treated with 10 μM of DCIR-EPS inhibitor for 10 min at 37° C. Cells were then contacted with NL4-3BalEnv for 2 hrs and washed three times with PBS to remove non-adsorbed virus. Cells were then incubated for 10 days and toxicity was measured using the MTT assay (upper panels). In parallel, cells were incubated for 24 hrs and stained with Z-Vad-FMK FITC Abs to measure apoptosis) (middle panels) or with DCIR Abs lower panels).
(§4) After observing the inhibition of p24 content in Th17 cells by the DCIR inhibitor (Cpd B2), the impact of the DCIR inhibitor on cell viability and apoptosis was determined (FIG. 14). Polarized CD4 Th17 cells (FIG. 14A, 14C, 14E) or PHA-L/IL-2 CD4T cells (FIGS. 14B, 14D, 14F) were either untreated (DMSO) or treated with 10 uM of DCIR inhibitor for 10 minutes at 37° C. and then incubated with NL4-3BalEnv or mock virus for 2 hours. […] DCIR expression on Th17 CD4 T cells and PHA-L/IL-2 activated CD4 T cells was measured with or without treatment with the DCIR inhibitor (FIGS. 14E, 14F). […]

Series [4] deals with PHA-L/IL-2 activated CD4 T cells. Nature of the series: Toxicity by MTT assay, PHA-L/IL-2 activated CD4 T cells. It counts as cell-based, human. The settings on record: 10 uM, 10 days. The protocol:
as §3, §4

Series [5] relates to Th17 CD4 T cells. Nature of the series: Apoptosis (Z-Vad-FMK FITC), Th17 CD4 T cells. Conditions: 10 uM, 24 hrs. In kind it is cell-based, human. On the procedure:
as §3, §4

Series [6] has as its system PHA-L/IL-2 CD4 T cells. Nature of the series: Apoptosis (Z-Vad-FMK FITC), PHA-L/IL-2 CD4 T cells. Conditions: 10 uM, 24 hrs. It counts as cell-based, human. The protocol:
as §3, §4

The subject of series [7] is DCIR. Briefly: DCIR expression on Th17 CD4 T cells. In kind it is cell-based, human. Conditions: 10 uM. The protocol:
as §3, §4

Series [8] relates to DCIR. Briefly: DCIR expression on PHA-L/IL-2 activated CD4 T cells. It counts as cell-based, human. The settings on record: 10 uM. The protocol:
as §3, §4

In series [9] the test system is HIV-1 (NL4-3). Nature of the series: HIV-1 binding/entry on H2O2-treated (apoptotic) CD4TL (p24). It counts as cell-based. Conditions: CD4TL treated with 30 μM H2O2 16 h; NL4-3 1 h; FIG. 8 panel A. On the procedure:
FIGS. 8A and 8B are bar graphs showing the impact of DCIR inhibitors on HIV-1 transmission by apoptotic CD4^+ T cells. Target CD4^+ T cells (1×10^6) were treated for 16 h with H2O2 (30 μM) to induce the surface expression of DCIR. Cells were treated with site A inhibitors (1 and 4) or site B inhibitors (1 and 2) or vehicle (DMSO). Panel A: Cells were next exposed to NL4-3 (100 ng/ml of p24) for 1 h at 37° C., extensively washed to remove unadsorbed virions before assessing p24 content. Panel B: Cells were first incubated with NL4-3 (100 ng/ml of p24) for 2 h at 37° C., washed extensively to remove unadsorbed virions and cultured in complete RPMI-1640 supplemented with rhIL-2 for the time indicated. Cell-free supernatants were then collected and assayed for p24 content. Data shown correspond to the means±sem of 3 independent experiments performed in triplicate for panel A and the means±SEM of 2 independent experiments for panel B. The asterisks denotes statistically significant data (*, P<0.05; **, P<0.01; ***, P<0.001).
Apoptosis was induced in CD4TL activated with 30 μM H2O2 for 16 h before performing the following experimental procedures. To assay binding/entry, cells (1×10^6) were incubated for 60 min at 37° C. with NL4-3 (100 ng of p24). After three extensive washes with PBS to remove un-adsorbed virus, HIV-1 binding was quantified by estimating p24 content. […]

On to `Cc1ccc(/N=[N+](\[O-])c2ccc(C)cc2)cc1` [Compound B2, 1-methyl-4-[(4-methylphenyl)-NNO-azoxy]benzene], for which the p24 content entry in series [1] is listed as “significantly reduced p24 content”; in [2] (after 3 and 7 days), “non-significant trend for reduction”; in [2] (after 10 days) it was “significant reduction”. Besides, the “toxic effect (MTT assay)” value in [3] and in [4] was “did not have a toxic effect” each time. In addition, the apoptosis entry is on record as “did not have any impact on apoptosis” in [5] and “underwent less apoptosis” in [6]. In addition, the DCIR expression entry is “no difference in DCIR expression” in series [7] and “marked reduction in DCIR expression” in series [8].

`O=C(/C=C/C=C/c1ccccc1)c1ccccc1` [Compound A1, 1,5-diphenyl-2,4-pentadien-1-one]: the “decrease of HIV-1 attachment to H2O2 treated cells” value in series [9] was “about 50%”.

Regarding `O=C(c1ccccc1)c1cc2ccccc2o1` [Compound B1, 1-benzofuran-2-yl(phenyl)methanone], in series [9], the “decrease of HIV-1 attachment to H2O2 treated cells” value is reported as about 40%.
